This is an account of results in doi:10.1101/2023.07.12.548622v2 (biorxiv, 2023).

The target of assay [1] is T1, hACKR3 (atypical chemokine receptor 3; CXCR7) (Homo sapiens, UniProt P25106). The experiment in a line: [3H]VUF15485 displacement, HEK293T membranes. To be noted: for pIC50: 5 nM [3H]VUF15485, 25 °C, 2 h. Type of assay: binding.
Assay [2] has as its target T1, hACKR3 (atypical chemokine receptor 3; CXCR7). Description: BRET beta-arrestin2 recruitment, HEK293T. The assay is classed as cell-based. For orientation: BRET reads energy transfer from a luciferase to a nearby fluorophore.
The target is the same in assay [3]. Description: […]CXCL12 displacement, intact HEK293T cells. The assay is classed as cell-based.
The target in assay [4] is hACKR3 (atypical chemokine receptor 3; CXCR7) (Homo sapiens, UniProt P25106, Y51A). Description: homologous [3H]VUF15485 competition binding, HEK293T membranes.
hACKR3 (atypical chemokine receptor 3; CXCR7) (Homo sapiens, UniProt P25106, Y51A), sequence (P25106 whole entry Y51A): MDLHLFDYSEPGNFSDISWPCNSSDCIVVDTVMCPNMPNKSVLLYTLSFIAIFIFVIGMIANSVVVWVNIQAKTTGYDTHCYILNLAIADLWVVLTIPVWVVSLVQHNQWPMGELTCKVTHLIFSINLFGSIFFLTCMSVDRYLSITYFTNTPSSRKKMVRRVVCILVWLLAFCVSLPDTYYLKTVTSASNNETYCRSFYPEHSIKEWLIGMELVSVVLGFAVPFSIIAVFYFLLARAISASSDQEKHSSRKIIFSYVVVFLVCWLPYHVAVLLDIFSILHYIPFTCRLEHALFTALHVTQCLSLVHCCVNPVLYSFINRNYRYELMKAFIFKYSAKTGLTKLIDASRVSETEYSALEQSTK
Another assay deals with mouse ACKR3 (mACKR3) (Mus musculus, UniProt P56485). Description: NanoBiT beta-arrestin2 recruitment, HEK293T. Type of assay: cell-based. In general terms: Recruitment of arrestin is a read-out of receptor activation apart from second messengers.
mouse ACKR3 (mACKR3), sequence (P56485 whole entry): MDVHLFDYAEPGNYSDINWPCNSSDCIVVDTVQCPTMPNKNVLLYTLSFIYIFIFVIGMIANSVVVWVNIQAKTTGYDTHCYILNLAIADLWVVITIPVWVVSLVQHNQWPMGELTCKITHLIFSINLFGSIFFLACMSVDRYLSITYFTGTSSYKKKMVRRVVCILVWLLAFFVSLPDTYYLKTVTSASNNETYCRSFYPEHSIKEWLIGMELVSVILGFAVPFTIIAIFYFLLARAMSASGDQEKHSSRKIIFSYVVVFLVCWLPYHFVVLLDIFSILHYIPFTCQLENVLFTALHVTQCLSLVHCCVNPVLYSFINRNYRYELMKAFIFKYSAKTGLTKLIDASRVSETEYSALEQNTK
Assay [5] concerns the target T1, hACKR3 (atypical chemokine receptor 3; CXCR7). Description: homologous [3H]VUF15485 competition binding, HEK293T membranes.
Assay [6] addresses hACKR3 (atypical chemokine receptor 3; CXCR7) (Homo sapiens, UniProt P25106, H298A). The description is as above.
Assay [7] addresses T1, hACKR3 (atypical chemokine receptor 3; CXCR7). The experiment in a line: [3H]VUF15485 saturation binding, HEK293T membranes.
The target in assay [8] is hACKR3 (atypical chemokine receptor 3; CXCR7) (Homo sapiens, UniProt P25106, E213Q). The experiment in a line: homologous [3H]VUF15485 competition binding, HEK293T membranes.
hACKR3 (atypical chemokine receptor 3; CXCR7) (Homo sapiens, UniProt P25106, E213Q), sequence (P25106 whole entry E213Q): as the sequence (P25106 whole entry Y51A) above, with A51Y, E213Q counted along it
Assay [9] concerns the target hACKR3 (atypical chemokine receptor 3; CXCR7) (Homo sapiens, UniProt P25106, V217A). Described as above.
In assay [10] the target is hACKR3 (atypical chemokine receptor 3; CXCR7) (Homo sapiens, UniProt P25106, H121A). The description is as above.
hACKR3 (atypical chemokine receptor 3; CXCR7) (Homo sapiens, UniProt P25106, H121A), sequence (P25106 whole entry H121A): as the sequence (P25106 whole entry Y51A) above, with A51Y, H121A counted along it
Assay [11] concerns the target hACKR3 (atypical chemokine receptor 3; CXCR7) (Homo sapiens, UniProt P25106, S103D). Described as above.
Assay [12] deals with hACKR3 (atypical chemokine receptor 3; CXCR7) (Homo sapiens, UniProt P25106, D275N). The description is as above.
hACKR3 (atypical chemokine receptor 3; CXCR7) (Homo sapiens, UniProt P25106, D275N), sequence (P25106 whole entry D275N): as the sequence (P25106 whole entry Y51A) above, with A51Y, D275N counted along it
Assay [13] addresses hACKR3 (atypical chemokine receptor 3; CXCR7) (Homo sapiens, UniProt P25106, Q301E). The assay is described as above.

Where only a bound is given, the exact number is not on record here.

T1 sequence (P25106 whole entry): as the sequence (P25106 whole entry Y51A) above, with A51Y counted along it
hACKR3 (atypical chemokine receptor 3; CXCR7) (Homo sapiens, UniProt P25106, H298A), sequence (P25106 whole entry H298A): as the sequence (P25106 whole entry Y51A) above, with A51Y, H298A counted along it
hACKR3 (atypical chemokine receptor 3; CXCR7) (Homo sapiens, UniProt P25106, Q301E), sequence (P25106 whole entry Q301E): as the sequence (P25106 whole entry Y51A) above, with A51Y, Q301E counted along it
hACKR3 (atypical chemokine receptor 3; CXCR7) (Homo sapiens, UniProt P25106, S103D), sequence (P25106 whole entry S103D): as the sequence (P25106 whole entry Y51A) above, with A51Y, S103D counted along it
hACKR3 (atypical chemokine receptor 3; CXCR7) (Homo sapiens, UniProt P25106, V217A), sequence (P25106 whole entry V217A): as the sequence (P25106 whole entry Y51A) above, with A51Y, V217A counted along it

A word on the IC50: it is the concentration at which inhibition is half-maximal. High values mean lower potency, low ones higher potency. The compound `Oc1ccc(CN2CCC(CNCc3ccccc3)CC2)cc1` [9 in Adlere et al., 2019, VUF16774] had an IC50 in assay [1] of 10000 nM.
In general, pIC50 refers to −log10 of the IC50, conventionally taken in molar units. Read a low pIC50 as a high IC50. Compound `CC1(C)[C@H]2CC=C(C[N+](C)(C)Cc3ccc(-c4ccccc4Br)cc3)[C@@H]1C2.[I-]` [38 in Wijtmans et al., 2012b, VUF11222] displayed a pIC50 in assay [1] of 5.8 ± 0.2.
For `CC1(C)[C@H]2CC=C(C[N+](C)(C)Cc3ccc(-c4ccccc4I)cc3)[C@@H]1C2.[I-]` [39 in Wijtmans et al., 2012b, VUF11418], the pIC50 in [1] came to 5.9 ± 0.3.
As for `c1cc(CN2CCCNCCNCCCNCC2)ccc1CN1CCCNCCNCCCNCC1` [AMD3100], the IC50 in assay [1] was ≥ 100000 nM.
For the compound `CC1(C)CN2C(CS/C(=N\C3CCCCC3)NC3CCCCC3)=CSC2=N1` [IT1t], in [1], the IC50 was ≥ 100000 nM.
For orientation: EC50 means the midpoint of the concentration-response curve. In [2], `COc1cc(C(=O)N(CCC2CCCN2C)C/C(C)=C/c2ccccc2F)cc(OC)c1OC` (stereo not shown) [VUF11207] gave an EC50 of 31.6 nM. The IC50 in [3] is 10 nM.
Regarding `CCNC(=O)c1cnc(N2CCN(C3CCN(Cc4ccc(Cl)cc4)CC3)C(CC)C2)c(Cl)c1` (stereo not shown) [VUF11211], the pIC50 in [1] was found to be 4.7 ± 0.2.
Regarding `COc1cc(C(=O)N(CC[C@@H]2CCCN2C)C/C(C)=C/c2ccccc2F)cc(OC)c1OC` [VUF13744], the response in assay [2] was half-maximal at 39.8 nM (EC50). Also, the IC50 in assay [3] was 20 nM.
In general, Ki refers to the dissociation constant of the complex between target and ligand, obtained from inhibition or displacement. Low readings indicate a stronger hold on the target, high ones a looser hold on the target. What is called Kd is the free concentration of one partner at which half of the binding sites on the other are occupied at equilibrium, for simple one-to-one binding. High values mean weaker binding, low ones tighter binding. As for `COc1cc(C(=O)N(CC[C@H]2CCCN2C)C/C(C)=C/c2ccccc2F)cc(OC)c1OC` [VUF15485, (R,E)-N-(3-(2-fluorophenyl)-2-methylallyl)-3,4,5-trimethoxy-N-(2-(1-methylpyrrolidin-2-yl)ethyl)benzamide], the Ki in [4] was 49 nM; in assay [5] it was 24.5 nM; in assay [6] it was 44.7 nM; in assay [8] it was 10.5 nM; in assay [9], 38 nM; in [10] it was 55 nM. The Ki in assay [11] is 95.5 nM; in assay [12], 18.6 nM; in [13], 17 nM. Besides, the EC50 was 25.1 nM in [2] and 20 nM at mouse ACKR3 (mACKR3). In assay [3], this compound gave an IC50 of 5.01 nM. The compound also displayed a Kd in assay [7] of 16 ± 2.4 nM.
The compound VUF10990 [10q in Wijtmans et al., 2011] gave a pIC50 in assay [1] of 5.9 ± 0.1.
On the same count and under the same terms, to VUF11403 [30 in Wijtmans et al., 2012a] belongs 7.9 ± 0.1; to VUF16545 [1 in Uto-Konimi et al., 2013], 7.8 ± 0.1.
For VUF16771 [28 in Adlere et al., 2019], in assay [1], the pIC50 turned out to be 5.8 ± 0.1.
As to VUF16779 [22 in Adlere et al., 2019], in [1], the pIC50 stood at 6.0 ± 0.1.
